Results from publication doi:10.1101/2025.07.31.667081v1 (biorxiv, 2025).
Residue numbers refer to the chain shown, from its start.

How the values were obtained:
Format in all cases: cell-based
[1] = biological target: T1, NVL-SNAP (recombinant NVL WT; SNAP-NVL-3xFlag) (Homo sapiens, UniProt O15381, R403W); assay: in-cell UV photocrosslinking, click dye, gel fluorescence of purified NVL
T1 sequence (O15381 1-856 R403W): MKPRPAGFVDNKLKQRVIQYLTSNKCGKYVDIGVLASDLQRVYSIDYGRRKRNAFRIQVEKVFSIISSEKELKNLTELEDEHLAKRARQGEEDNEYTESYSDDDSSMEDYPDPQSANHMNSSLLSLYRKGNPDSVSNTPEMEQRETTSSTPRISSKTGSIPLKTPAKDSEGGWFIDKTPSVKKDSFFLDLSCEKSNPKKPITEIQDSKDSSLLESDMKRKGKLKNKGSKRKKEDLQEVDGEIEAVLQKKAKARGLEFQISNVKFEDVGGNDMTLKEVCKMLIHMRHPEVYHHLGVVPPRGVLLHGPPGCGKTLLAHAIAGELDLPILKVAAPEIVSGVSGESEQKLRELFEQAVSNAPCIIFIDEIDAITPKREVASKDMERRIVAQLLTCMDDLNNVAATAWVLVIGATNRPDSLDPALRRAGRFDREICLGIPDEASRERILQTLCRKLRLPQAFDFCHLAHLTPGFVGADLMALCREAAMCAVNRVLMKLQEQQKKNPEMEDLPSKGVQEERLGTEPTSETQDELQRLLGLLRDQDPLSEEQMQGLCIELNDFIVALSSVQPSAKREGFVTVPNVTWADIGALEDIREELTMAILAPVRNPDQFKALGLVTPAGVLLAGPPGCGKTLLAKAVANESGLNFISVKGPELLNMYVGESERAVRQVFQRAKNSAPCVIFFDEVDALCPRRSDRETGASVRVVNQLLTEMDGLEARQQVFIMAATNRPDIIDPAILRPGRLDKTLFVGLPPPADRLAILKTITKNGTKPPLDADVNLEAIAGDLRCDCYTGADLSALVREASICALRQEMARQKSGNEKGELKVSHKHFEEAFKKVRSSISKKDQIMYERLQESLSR

[2] = biological target: T2, NVL-SNAP (recombinant NVL WT; SNAP-NVL-3xFlag) (Homo sapiens, UniProt O15381); assay: as above
T2 sequence (O15381 1-856): T1 sequence (O15381 1-856 R403W) with W403R

[3] = biological target: T2, NVL-SNAP (recombinant NVL WT; SNAP-NVL-3xFlag); assay: competition of MM514 photocrosslinking to NVL-SNAP

EC50 [1] [nM]	EC50 [2] [nM]	EC50 [3] [nM]	SMILES
> 17000	490	–	C#CCOCCN1C(=O)c2ccccc2Sc2cc(NC(=O)c3ccc(N=[N+]=[N-])cc3)ccc21 [MM514, 4-Azido-N-(11-oxo-10-(2-(prop-2-yn-1-yloxy)ethyl)-10,11-dihydro-dibenzo[b,f][1,4]thiazepin-7-yl)benzamide]
–	–	26000	COCCN1C(=O)c2ccccc2Sc2cc(NC(=O)c3ccccc3OC)ccc21 [MM691, 2-Methoxy-N-(10-(2-methoxyethyl)-11-oxo-10,11-dihydrodibenzo[b,f][1,4]thiazepin-7-yl)benzamide]
–	–	2600	COCCN1C(=O)c2ccccc2Sc2cc(NC(=O)c3ccc(OC)cc3)ccc21 [MM524, 4-Methoxy-N-(10-(2-methoxyethyl)-11-oxo-10,11-dihydrodibenzo[b,f][1,4]thiazepin-7-yl)benzamide]
